Measurements from patent US20240209001A1, “HETEROCYCLIC DERIVATIVES AS JANUS KINASE INHIBITORS” (CHIESI FARMACEUTICI S.P. A., priority 2021, published 2024).

Experiments:
[1] = test system: IL-2 induced phosphorylation of STAT5 (JAK1/JAK3 activity) in human peripheral blood mononuclear cells (PBMCs); experiment: Cell based assay PBMC (IL-2 stimulated pSTAT5); conditions: 0.5 h, rh IL-2, 30 min incubation, pSTAT5 ELISA, read-out: Cell Based assay PBMC (IL-2 stimulated pSTAT5), data displayed as pIC50 (converted)
Method: In addition to enzymatic potency, the effects of the inhibitors against JAK1/JAK3 activity in a cellular assay was characterized against IL-2 induced phosphorylation of STAT5 level in human peripheral blood mononuclear cells (PBMCs).
PBMC have been isolated from human healthy volunteers. Cells were seeded in wells and treated with compounds and rh IL-2. After 30 min incubation cells were lysed and pSTAT5 determined by PathScan phospho-stat5 (Tyr694) ELISA (Cell signaling). Inhibitors were tested at 11 consecutive 5-fold dilutions starting from 30 μM (30 μM-[…]) in duplicate. Calculation of IC50 data, curves and QC analysis were made using Excel tools and GraphPadPrism software. QC criteria parameters: Z′≥0.35, Hill Slope range 0.5 to 5, S:B>2.

[2] = target: JAK 1 (Homo sapiens (Human), UniProt P23458); experiment: Biochemical potency JAK1, TR-FRET LANCE Ultra kinase assay (examples 1a-10a); conditions: ATP corresponding to Km
Chain of JAK 1 (P23458 whole entry): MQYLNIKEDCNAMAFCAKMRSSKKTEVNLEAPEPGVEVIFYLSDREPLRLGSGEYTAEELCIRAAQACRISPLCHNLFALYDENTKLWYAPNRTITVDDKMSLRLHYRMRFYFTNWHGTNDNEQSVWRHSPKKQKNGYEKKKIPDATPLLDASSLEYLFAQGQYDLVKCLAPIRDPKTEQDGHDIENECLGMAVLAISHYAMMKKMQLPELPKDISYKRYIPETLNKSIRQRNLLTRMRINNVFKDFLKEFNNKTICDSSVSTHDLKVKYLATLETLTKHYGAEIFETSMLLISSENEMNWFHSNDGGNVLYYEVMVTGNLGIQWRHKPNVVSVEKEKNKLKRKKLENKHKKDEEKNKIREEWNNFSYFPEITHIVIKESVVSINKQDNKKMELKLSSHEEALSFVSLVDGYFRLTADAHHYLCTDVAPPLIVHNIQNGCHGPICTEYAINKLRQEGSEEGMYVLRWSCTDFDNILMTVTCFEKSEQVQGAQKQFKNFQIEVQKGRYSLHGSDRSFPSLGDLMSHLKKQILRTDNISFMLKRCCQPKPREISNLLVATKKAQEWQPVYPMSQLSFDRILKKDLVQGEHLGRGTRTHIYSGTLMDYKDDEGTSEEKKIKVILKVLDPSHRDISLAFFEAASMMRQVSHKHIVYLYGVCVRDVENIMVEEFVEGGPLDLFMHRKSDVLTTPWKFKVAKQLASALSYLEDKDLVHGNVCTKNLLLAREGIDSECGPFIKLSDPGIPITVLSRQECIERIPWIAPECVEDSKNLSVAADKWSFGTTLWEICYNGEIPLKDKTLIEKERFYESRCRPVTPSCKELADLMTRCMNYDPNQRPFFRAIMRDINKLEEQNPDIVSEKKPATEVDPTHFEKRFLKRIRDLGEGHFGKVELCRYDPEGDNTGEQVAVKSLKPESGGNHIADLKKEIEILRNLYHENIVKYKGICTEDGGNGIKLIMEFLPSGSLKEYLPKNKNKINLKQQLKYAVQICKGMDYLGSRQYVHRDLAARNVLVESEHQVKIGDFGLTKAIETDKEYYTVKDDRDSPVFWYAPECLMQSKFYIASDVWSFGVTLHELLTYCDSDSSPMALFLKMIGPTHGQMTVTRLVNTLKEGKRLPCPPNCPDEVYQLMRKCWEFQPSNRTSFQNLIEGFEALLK
From the text: Pharmacological Activity of the Compounds of the Invention (1a-10a).
The objective of this study was to assess the activity of novel JAK inhibitors measuring the capability of compounds to inhibit JAK1 kinase activity in a biochemical time-resolved fluorescence resonance energy transfer (TR-FRET) LANCE assay. In LANCE Ultra kinase assay in the presence of JAK1 kinase and ATP (corresponding to Km), the ULight peptide substrate (LANCE Ulight-JAK-1 (Tyr1023) Peptide, Perkin Elmer, TRF0121) was phosphorylated. It was then captured by a Eu-anti-phospho-substrate antibody (LANCE Eu-W1024 Anti-phosphotyrosine (PT66), Perkin Elmer, AD0069), which brought the Eu-chelate donor and ULight acceptor dyes into close proximity. Upon excitation at 320 nm, the Eu-chelate transfers its energy to the ULight dye, resulting in a fluorescent light emission at 665 nm. Inhibitors were tested at 11 consecutive 5-fold dilutions starting from 30 μM (30 μM-[…]) in duplicate. Calculation of IC50 data, curves and QC analysis were made using Excel tools and GraphPadPrism software. QC criteria parameters: Z′≥0.5, Hill Slope range 0.5 to 5, S:B>2.

Row | Biochemical Potency JAK 1 (pIC50) [2] | SMILES | IC50 [1] [nM]
1 | 6.0 | Cc1nn(C2CCCN(C(=O)CC#N)C2)c2cc(-c3cnn4cccnc34)cnc12 (stereo not drawn) [Example 10a, 3-(3-(3-methyl-6-(pyrazolo[1,5-a]pyrimidin-3-yl)-1H-pyrazolo[4,3-b]pyridin-1-yl)piperidin-1-yl)-3-oxopropanenitrile] | 6310
2 | 7.8 | Cc1nn(-c2cc(Cl)ccc2OC(F)F)c2cc(-c3cnn4cccnc34)cnc12 [Example 9a, 1-(5-chloro-2-(difluoromethoxy)phenyl)-3-methyl-6-(pyrazolo[1,5-a]pyrimidin-3-yl)-1H-pyrazolo[4,3-b]pyridine] | 50.1

The remaining lines, values behind:

Row | SMILES | Biochemical Potency JAK 1 (pIC50) [2] | IC50 [1] [nM]
3 | OCc1nn(-c2cc(Cl)ccc2OC(F)F)c2cc(-c3cnn4cccnc34)cnc12 [Example 1a, (1-(5-chloro-2-(difluoromethoxy)phenyl)-6-(pyrazolo[1,5-a]pyrimidin-3-yl)-1H-pyrazolo[4,3-b]pyridin-3-yl)methanol] | 8.1 | 50.1
4 | O=C(O)Cc1nn(-c2cc(Cl)ccc2OC(F)F)c2cc(-c3cnn4cccnc34)cnc12 [Example 5a, 2-(1-(5-chloro-2-(difluoromethoxy)phenyl)-6-(pyrazolo[1,5-a]pyrimidin-3-yl)-1H-pyrazolo[4,3-b]pyridin-3-yl)acetic acid] | 7.7 | 6310
5 | CN(C)C(=O)Cc1nn(-c2cc(Cl)ccc2OC(F)F)c2cc(-c3cnn4cccnc34)cnc12 [Example 4a, 2-(1-(5-chloro-2-(difluoromethoxy)phenyl)-6-(pyrazolo[1,5-a]pyrimidin-3-yl)-1H-pyrazolo[4,3-b]pyridin-3-yl)-N,N-dimethylacetamide] | 7.8 | 316
6 | Cc1nn(Cc2ccc(Cl)cc2F)c2cc(-c3cnc4cccnn34)cnc12 [Example 8a, 1-(4-chloro-2-fluorobenzyl)-6-(imidazo[1,2-b]pyridazin-3-yl)-3-methyl-1H-pyrazolo[4,3-b]pyridine] | 6.7 | 794
